Patent publication US8318746B2, “Nitrogen-containing five-membered heterocyclic compound” (Takeda Pharmaceutical Company Limited, priority 2007, dated 2012)
Counter-ions that a name gives are not always drawn.

melting point | SMILES
199 to 201 °C | CS(=O)(=O)c1ccc(C(CC2CCOCC2)c2ccc(-c3nnc(CO)s3)[nH]2)cc1 (stereo not drawn) [Example 221, [5-(5-{1-[4-(methylsulfonyl)phenyl]-2-(tetrahydro-2H-pyran-4-yl)ethyl}-1H-pyrrol-2-yl)-1,3,4-thiadiazol-2-yl]methanol]
180 to 182 °C | CN(C)C(=O)c1cc(-c2nccs2)[nH]c1C(CC1CCOCC1)c1ccc(S(=O)(=O)C2CC2)cc1 (stereo not drawn) [Example 105, 2-{1-[4-(cyclopropylsulfonyl)phenyl]-2-(tetrahydro-2H-pyran-4-yl)ethyl}-N,N-dimethyl-5-(1,3-thiazol-2-yl)-1H-pyrrole-3-carboxamide]
115 to 116 °C | CC(O)c1cnc(-c2ccc(C(CC3CCOCC3)c3ccc(S(=O)(=O)C4CC4)cc3)[nH]2)s1 (stereo not drawn) [Example 168, Optically Active Form of 1-[2-(5-{1-[4-(cyclopropylsulfonyl)phenyl]-2-(tetrahydro-2H-pyran-4-yl)ethyl}-1H-pyrrol-2-yl)-1,3-thiazol-5-yl]ethanol]
94 to 98 °C | O=C(Cc1ccc(-c2ccc(C(CC3CCOCC3)c3ccc(S(=O)(=O)C4CC4)cc3)[nH]2)nc1)N1CCC1 (stereo not drawn) [Example 131, 5-(2-(azetidin-1-yl)-2-oxoethyl)-2-(5-{1-[4-(cyclopropylsulfonyl)phenyl]-2-(tetrahydro-2H-pyran-4-yl)ethyl}-1H-pyrrol-2-yl)pyridine]
136 to 138 °C | NC(=O)c1ccc(-c2ccc(C(CC3CCOCC3)c3ccc(S(=O)(=O)C4CC4)cc3)[nH]2)nc1 (stereo not drawn) [Example 124, 6-(5-{1-[4-(cyclopropylsulfonyl)phenyl]-2-(tetrahydro-2H-pyran-4-yl)ethyl}-1H-pyrrol-2-yl)pyridine-3-carboxamide]
120 to 122 °C | COC(=O)Nc1cc(-c2nccs2)[nH]c1C(CC1CCOCC1)c1ccc(S(=O)(=O)C2CC2)cc1 (stereo not drawn) [Example 181, Methyl [2-{1-[4-(cyclopropylsulfonyl)phenyl]-2-(tetrahydro-2H-pyran-4-yl)ethyl}-5-(1,3-thiazol-2-yl)-1H-pyrrol-3-yl]carbamate]
112 to 114 °C | CC(C)(O)c1ccc(-c2ccc(C(CC3CCOCC3)c3ccc(S(=O)(=O)C4CC4)cc3)[nH]2)nc1 (stereo not drawn) [Example 125, 2-[6-(5-{1-[4-(cyclopropylsulfonyl)phenyl]-2-(tetrahydro-2H-pyran-4-yl)ethyl}-1H-pyrrol-2-yl)pyridin-3-yl]propan-2-ol]
150 to 152 °C | COC(=O)c1ccc(-c2ccc(C(CC3CCOCC3)c3ccc(S(=O)(=O)C4CC4)cc3)[nH]2)nc1 (stereo not drawn) [Example 118, Methyl 6-(5-{1-[4-(cyclopropylsulfonyl)phenyl]-2-(tetrahydro-2H-pyran-4-yl)ethyl}-1H-pyrrol-2-yl)pyridine-3-carboxylate]
208.5 to 208.6 °C | O=S(=O)(c1ccc(C(CC2CCOCC2)c2ccc(-c3nnc(CO)s3)[nH]2)cc1)C1CC1 (stereo not drawn) [Example 206, [5-(5-{1-[4-(cyclopropylsulfonyl)phenyl]-2-(tetrahydro-2H-pyran-4-yl)ethyl}-1H-pyrrol-2-yl)-1,3,4-thiadiazol-2-yl]methanol]
202 to 203 °C | O=C(Cc1ccc(-c2ccc(C(CC3CCOCC3)c3ccc(S(=O)(=O)C4CC4)cc3)[nH]2)nc1)N1CCOCC1 (stereo not drawn) [Example 130, 4-{[6-(5-{1-[4-(cyclopropylsulfonyl)phenyl]-2-(tetrahydro-2H-pyran-4-yl)ethyl}-1H-pyrrol-2-yl)pyridin-3-yl]acetyl}morpholine]
139 to 141 °C | N#CCc1ccc(-c2ccc(C(CC3CCOCC3)c3ccc(S(=O)(=O)C4CC4)cc3)[nH]2)nc1 (stereo not drawn) [Example 128, [6-(5-{1-[4-(cyclopropylsulfonyl)phenyl]-2-(tetrahydro-2H-pyran-4-yl)ethyl}-1H-pyrrol-2-yl)pyridin-3-yl]acetonitrile]
165 to 167 °C | O=C1CC[C@H](CC(c2ccc(S(=O)(=O)C3CC3)cc2)c2ccc(-c3nccs3)[nH]2)C1 (stereo partly drawn) [Example 102, (3R)-3-{2-[4-(cyclopropylsulfonyl)phenyl]-2-[5-(1,3-thiazol-2-yl)-1H-pyrrol-2-yl]ethyl}cyclopentanone]
114 to 116 °C | CC(C)=Cc1ccc(-c2ccc(C(CC3CCOCC3)c3ccc(S(=O)(=O)C4CC4)cc3)[nH]2)nc1 (stereo not drawn) [Example 126, 2-(5-{1-[4-(cyclopropylsulfonyl)phenyl]-2-(tetrahydro-2H-pyran-4-yl)ethyl}-1H-pyrrol-2-yl)-5-(2-methylprop-1-en-1-yl)pyridine]
146 to 148 °C | Cl.O=C1CCN(Cc2cnc(-c3ccc(C(CC4CCOCC4)c4ccc(S(=O)(=O)C5CC5)cc4)[nH]3)s2)CC1 (stereo not drawn)
109 to 110 °C | O=C(c1ccc(-c2ccc(C(CC3CCOCC3)c3ccc(S(=O)(=O)C4CC4)cc3)[nH]2)nc1)N1CCC1 (stereo not drawn) [Example 120]
134 to 136 °C | O=C(NC1CC1)c1ccc(-c2ccc(C(CC3CCOCC3)c3ccc(S(=O)(=O)C4CC4)cc3)[nH]2)nc1 (stereo not drawn) [Example 119, N-cyclopropyl-6-(5-{1-[4-(cyclopropylsulfonyl)phenyl]-2-(tetrahydro-2H-pyran-4-yl)ethyl}-1H-pyrrol-2-yl)pyridine-3-carboxamide]
> 194 °C (dec.) | O=C(O)CCc1cnc(-c2ccc(C(CC3CCOCC3)c3ccc(S(=O)(=O)C4CC4)cc3)[nH]2)s1 (stereo not drawn) (as salt: calcium) [Example 163, 3-[2-(5-{1-[4-(cyclopropylsulfonyl)phenyl]-2-(tetrahydro-2H-pyran-4-yl)ethyl}-1H-pyrrol-2-yl)-1,3-thiazol-5-yl]propanoic acid 1/2 calcium salt]
246 to 247 °C (dec.) | O=C(O)Cc1cnc(-c2ccc(C(CC3CCOCC3)c3ccc(S(=O)(=O)C4CC4)cc3)[nH]2)s1 (stereo not drawn) [Example 149, [2-(5-{1-[4-(cyclopropylsulfonyl)phenyl]-2-(tetrahydro-2H-pyran-4-yl)ethyl}-1H-pyrrol-2-yl)-1,3-thiazol-5-yl]acetic acid]
241 to 243 °C | NC(=O)c1cc(-c2nccs2)[nH]c1C(CC1CCOCC1)c1ccc(S(=O)(=O)C2CC2)cc1 (stereo not drawn) [Example 106, 2-{1-[4-(cyclopropylsulfonyl)phenyl]-2-(tetrahydro-2H-pyran-4-yl)ethyl}-5-(1,3-thiazol-2-yl)-1H-pyrrole-3-carboxamide]
105 to 106 °C | CC(O)c1cnc(-c2ccc(C(CC3CCOCC3)c3ccc(S(=O)(=O)C4CC4)cc3)[nH]2)s1 (stereo not drawn) [Example 166, Optically Active Form of 1-[2-(5-{1-[4-(cyclopropylsulfonyl)phenyl]-2-(tetrahydro-2H-pyran-4-yl)ethyl}-1H-pyrrol-2-yl)-1,3-thiazol-5-yl]ethanol]
153 to 155 °C | O=C(O)c1cc(-c2nccs2)[nH]c1C(CC1CCOCC1)c1ccc(S(=O)(=O)C2CC2)cc1 (stereo not drawn) [Example 104, 2-{1-[4-(cyclopropylsulfonyl)phenyl]-2-(tetrahydro-2H-pyran-4-yl)ethyl}-5-(1,3-thiazol-2-yl)-1H-pyrrole-3-carboxylic acid]
114 to 116 °C | N#Cc1cc(-c2nccs2)[nH]c1C(CC1CCOCC1)c1ccc(S(=O)(=O)C2CC2)cc1 (stereo not drawn) [Example 107, 2-{1-[4-(cyclopropylsulfonyl)phenyl]-2-(tetrahydro-2H-pyran-4-yl)ethyl}-5-(1,3-thiazol-2-yl)-1H-pyrrole-3-carbonitrile]
116 to 118 °C | CC(O)COc1ccc(-c2ccc(C(CC3CCOCC3)c3ccc(S(=O)(=O)C4CC4)cc3)[nH]2)nc1 (stereo not drawn) [Example 117, 1-{[6-(5-{1-[4-(cyclopropylsulfonyl)phenyl]-2-(tetrahydro-2H-pyran-4-yl)ethyl}-1H-pyrrol-2-yl)pyridin-3-yl]oxy}propan-2-ol]
175 to 176 °C | O=Cc1cnc(-c2ccc(C(CC3CCOCC3)c3ccc(S(=O)(=O)C4CC4)cc3)[nH]2)s1 (stereo not drawn) [Example 158, 2-(5-{1-[4-(cyclopropylsulfonyl)phenyl]-2-(tetrahydro-2H-pyran-4-yl)ethyl}-1H-pyrrol-2-yl)-1,3-thiazole-5-carbaldehyde]
126 to 128 °C | CC(C)(O)CNC(=O)c1ccc(-c2ccc(C(CC3CCOCC3)c3ccc(S(=O)(=O)C4CC4)cc3)[nH]2)nc1 (stereo not drawn) [Example 123, 6-(5-[1-[4-(cyclopropylsulfonyl)phenyl]-2-(tetrahydro-2H-pyran-4-yl)ethyl]-1H-pyrrol-2-yl)-N-(2-hydroxy-2-methylpropyl)pyridine-3-carboxamide]
151 to 153 °C | NC(=O)Cc1ccc(-c2ccc(C(CC3CCOCC3)c3ccc(S(=O)(=O)C4CC4)cc3)[nH]2)nc1 (stereo not drawn) [Example 132, 2-[6-(5-{1-[4-(cyclopropylsulfonyl)phenyl]-2-(tetrahydro-2H-pyran-4-yl)ethyl}-1H-pyrrol-2-yl)pyridin-3-yl]acetamide]
112 to 114 °C | CC(O)c1cnc(-c2ccc(C(CC3CCOCC3)c3ccc(S(=O)(=O)C4CC4)cc3)[nH]2)s1 (stereo not drawn) [Example 167, Optically Active form of 1-[2-(5-{1-[4-(cyclopropylsulfonyl)phenyl]-2-(tetrahydro-2H-pyran-4-yl)ethyl}-1H-pyrrol-2-yl)-1,3-thiazol-5-yl]ethanol]
110 to 112 °C | CC(C)(O)COc1ccc(-c2ccc(C(CC3CCOCC3)c3ccc(S(=O)(=O)C4CC4)cc3)[nH]2)nc1 (stereo not drawn) [Example 116, 1-{[6-(5-{1-[4-(cyclopropylsulfonyl)phenyl]-2-(tetrahydro-2H-pyran-4-yl)ethyl}-1H-pyrrol-2-yl)pyridin-3-yl]oxy}-2-methylpropan-2-ol]
89 to 90 °C | CS(=O)(=O)c1ccc(C(CC2CCOCC2)c2ccc(-c3ccccn3)[nH]2)cn1 (stereo not drawn) [Example 137, 2-(methylsulfonyl)-5-[1-(5-(pyridin-2-yl)-1H-pyrrol-2-yl)-2-(tetrahydro-2H-pyran-4-yl)ethyl]pyridine]
147 to 148 °C | CC(c1cnc(-c2ccc(C(CC3CCOCC3)c3ccc(S(=O)(=O)C4CC4)cc3)[nH]2)s1)N(C)C (stereo not drawn) (as salt: hydrochloride) [Example 157, 1-[2-(5-{1-[4-(cyclopropylsulfonyl)phenyl]-2-(tetrahydro-2H-pyran-4-yl)ethyl}-1H-pyrrol-2-yl)-1,3-thiazol-5-yl]-N,N-dimethylethanamine dihydrochloride]
